Data taken from PubChem BioAssay (NCI).
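Values below derive from 48-hour exposures of cells grown in 96-well plates, with endpoints linearly interpolated between the two concentrations bracketing the appropriate inhibition level. The concentration for full growth arrest is given as TGI.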

Assays:
Experiment in all cases: DTP human tumour cell line panel, 48 h
CCRF-CEM leukemia = system: CCRF-CEM leukemia
MDA-MB-435 = system: MDA-MB-435
ACHN renal = system: ACHN renal
NCI/ADR-RES ovarian = system: NCI/ADR-RES ovarian
U251 CNS = system: U251 CNS
M14 melanoma = system: M14 melanoma
LOX IMVI melanoma = system: LOX IMVI melanoma
CAKI-1 renal = system: CAKI-1 renal
SNB-75 CNS = system: SNB-75 CNS
HOP-62 NSCLC = system: HOP-62 NSCLC
SK-MEL-2 melanoma = system: SK-MEL-2 melanoma
HL-60(TB) leukemia = system: HL-60(TB) leukemia
NCI-H23 lung = system: NCI-H23 lung
A549 NSCLC = system: A549 NSCLC
HCT-15 colon = system: HCT-15 colon
DU-145 prostate = system: DU-145 prostate
SK-MEL-5 melanoma = system: SK-MEL-5 melanoma
NCI-H226 lung = system: NCI-H226 lung
RPMI-8226 leukemia = system: RPMI-8226 leukemia
KM12 colon = system: KM12 colon
SN12C renal = system: SN12C renal
MCF7 breast = system: MCF7 breast
SK-MEL-28 melanoma = system: SK-MEL-28 melanoma
SK-OV-3 ovarian = system: SK-OV-3 ovarian
TK-10 renal = system: TK-10 renal
BT-549 breast = system: BT-549 breast
OVCAR-5 ovarian = system: OVCAR-5 ovarian
UACC-257 melanoma = system: UACC-257 melanoma
HOP-92 NSCLC = system: HOP-92 NSCLC
RXF 393 renal = system: RXF 393 renal
SNB-19 CNS = system: SNB-19 CNS
OVCAR-8 ovarian = system: OVCAR-8 ovarian
SW-620 colon = system: SW-620 colon
SF-295 CNS = system: SF-295 CNS
HCC-2998 colon = system: HCC-2998 colon
NCI-H460 lung = system: NCI-H460 lung
UACC-62 melanoma = system: UACC-62 melanoma
EKVX NSCLC = system: EKVX NSCLC
PC-3 prostate = system: PC-3 prostate
COLO 205 colon = system: COLO 205 colon
T-47D breast = system: T-47D breast
MDA-N = system: MDA-N
OVCAR-4 ovarian = system: OVCAR-4 ovarian
A498 renal = system: A498 renal
786-0 renal = system: 786-0 renal
OVCAR-3 ovarian = system: OVCAR-3 ovarian
K-562 leukemia = system: K-562 leukemia
MOLT-4 leukemia = system: MOLT-4 leukemia
UO-31 renal = system: UO-31 renal
NCI-H522 lung = system: NCI-H522 lung
IGROV1 ovarian = system: IGROV1 ovarian
HT29 colon = system: HT29 colon
SF-539 CNS = system: SF-539 CNS
SF-268 CNS = system: SF-268 CNS
SR leukemia = system: SR leukemia
MDA-MB-231 breast = system: MDA-MB-231 breast
HCT-116 colon = system: HCT-116 colon
MALME-3M melanoma = system: MALME-3M melanoma

Measured: TGI

CCOC(=O)CCSS(=O)(=O)c1ccccc1
99 µM: RPMI-8226 leukemia
63.9 µM: 786-0 renal
77.4 µM: LOX IMVI melanoma
not listed: K-562 leukemia | MOLT-4 leukemia | UO-31 renal | NCI-H522 lung | IGROV1 ovarian | HT29 colon | SF-539 CNS | SF-268 CNS | SR leukemia | MDA-MB-231 breast | HCT-116 colon | MALME-3M melanoma
> 100 µM: all other assays above

CC(C)(Br)C(Br)CCC1(C(Br)CBr)CO1 (stereo not drawn)
not listed: NCI/ADR-RES ovarian | LOX IMVI melanoma | SK-MEL-2 melanoma | HCT-15 colon | UACC-257 melanoma | NCI-H460 lung | MALME-3M melanoma
> 10 µM: all other assays above

COC(=O)C1=C(O)C(C(=O)OC)[C@]2(O)[C@@H](C(=O)OC)[C@H]1[C@H](C)[C@@H](c1ccccc1)[C@@H]2C(=O)OC (stereo partly drawn)
47.1 µM: NCI-H522 lung
62.3 µM: HL-60(TB) leukemia
93.5 µM: IGROV1 ovarian
70.7 µM: CCRF-CEM leukemia
not listed: RPMI-8226 leukemia | MCF7 breast | HOP-92 NSCLC | HCC-2998 colon | A498 renal | UO-31 renal | SR leukemia
> 100 µM: all other assays above

O=C(O)c1cccc(SSc2cccc(C(=O)O)c2)c1
81 µM: CCRF-CEM leukemia
not listed: MCF7 breast | HCC-2998 colon
> 100 µM: all other assays above

COC(=O)[C@]1(c2cc3ccccc3[nH]2)CC2CN(C(=O)OCc3ccccc3)C1C=C2OC (stereo partly drawn)
49.9 µM: UACC-257 melanoma
71.2 µM: SNB-75 CNS
98.8 µM: OVCAR-4 ovarian
74.3 µM: ACHN renal
58.5 µM: MCF7 breast
72.1 µM: RPMI-8226 leukemia
64.4 µM: MOLT-4 leukemia
36.7 µM: UACC-62 melanoma
55 µM: NCI-H226 lung
91.4 µM: OVCAR-3 ovarian
57.6 µM: RXF 393 renal
46.8 µM: HCC-2998 colon
82.3 µM: BT-549 breast
69.3 µM: CCRF-CEM leukemia
63.6 µM: HT29 colon
44 µM: SK-MEL-2 melanoma
55.2 µM: SF-539 CNS
56.9 µM: MDA-MB-231 breast
66.4 µM: MALME-3M melanoma
47 µM: M14 melanoma
91.3 µM: NCI-H522 lung
43.7 µM: HL-60(TB) leukemia
55.3 µM: MDA-MB-435
80.6 µM: HOP-92 NSCLC
44.2 µM: OVCAR-5 ovarian
38 µM: COLO 205 colon
not listed: SK-MEL-5 melanoma | A498 renal | UO-31 renal | SR leukemia
> 100 µM: all other assays above
